The text below walks through data of ChEMBL document CHEMBL5715954, “Silencing c-Myc translation as a therapeutic strategy through targeting PI3Kδ and CK1ε in hematological malignancies” (Blood, 2017).

Activity calls are given as the source filed them. The rule behind the calls is not given here.

The target of test [1] is Calcium/calmodulin-dependent protein kinase type 1G (Homo sapiens) (UniProt Q96NX5). The test can be described thus: Inhibition of human CAMK1g assessed as enzyme activity at 1 uM using KKALRRQETVDAL as substrate preincubated for 20 mins followed by [gamma-33P]-ATP addition and measured after 120 mins by radiometric Hot-SpotSM Kinase assay relative to control. On the set-up: scale not given: the % may be the effect or the level left.

Test [2] deals with Serine/threonine-protein kinase SIK2 (Homo sapiens) (UniProt Q9H0K1). Nature of the test: Inhibition of human SIK2 assessed as enzyme activity at 1 uM using AMARAASAAALARRR as substrate preincubated for 20 mins followed by [gamma-33P]-ATP addition and measured after 120 mins by radiometric Hot-SpotSM Kinase assay relative to control. Also noted: scale not given: the % may be the effect or the level left.

Test [3] concerns the target Fibroblast growth factor receptor 2 (Homo sapiens) (UniProt P21802). Nature of the test: Inhibition of human FGFR2 assessed as enzyme activity at 1 uM using poly[Glu:Tyr] (4:1) as substrate preincubated for 20 mins followed by [gamma-33P]-ATP addition and measured after 120 mins by radiometric Hot-SpotSM Kinase assay relative to control. Also noted: scale not given: the % may be the effect or the level left.

The target in test [4] is Tyrosine-protein kinase CSK (Homo sapiens) (UniProt P41240). The test can be described thus: Inhibition of human CSK assessed as enzyme activity at 1 uM using poly[Glu:Tyr] (4:1) as substrate preincubated for 20 mins followed by [gamma-33P]-ATP addition and measured after 120 mins by radiometric Hot-SpotSM Kinase assay relative to control. On the set-up: scale not given: the % may be the effect or the level left.

In test [5] the target is T1, Ephrin type-B receptor 4 (Homo sapiens) (UniProt P54760).
T1 sequence (whole entry): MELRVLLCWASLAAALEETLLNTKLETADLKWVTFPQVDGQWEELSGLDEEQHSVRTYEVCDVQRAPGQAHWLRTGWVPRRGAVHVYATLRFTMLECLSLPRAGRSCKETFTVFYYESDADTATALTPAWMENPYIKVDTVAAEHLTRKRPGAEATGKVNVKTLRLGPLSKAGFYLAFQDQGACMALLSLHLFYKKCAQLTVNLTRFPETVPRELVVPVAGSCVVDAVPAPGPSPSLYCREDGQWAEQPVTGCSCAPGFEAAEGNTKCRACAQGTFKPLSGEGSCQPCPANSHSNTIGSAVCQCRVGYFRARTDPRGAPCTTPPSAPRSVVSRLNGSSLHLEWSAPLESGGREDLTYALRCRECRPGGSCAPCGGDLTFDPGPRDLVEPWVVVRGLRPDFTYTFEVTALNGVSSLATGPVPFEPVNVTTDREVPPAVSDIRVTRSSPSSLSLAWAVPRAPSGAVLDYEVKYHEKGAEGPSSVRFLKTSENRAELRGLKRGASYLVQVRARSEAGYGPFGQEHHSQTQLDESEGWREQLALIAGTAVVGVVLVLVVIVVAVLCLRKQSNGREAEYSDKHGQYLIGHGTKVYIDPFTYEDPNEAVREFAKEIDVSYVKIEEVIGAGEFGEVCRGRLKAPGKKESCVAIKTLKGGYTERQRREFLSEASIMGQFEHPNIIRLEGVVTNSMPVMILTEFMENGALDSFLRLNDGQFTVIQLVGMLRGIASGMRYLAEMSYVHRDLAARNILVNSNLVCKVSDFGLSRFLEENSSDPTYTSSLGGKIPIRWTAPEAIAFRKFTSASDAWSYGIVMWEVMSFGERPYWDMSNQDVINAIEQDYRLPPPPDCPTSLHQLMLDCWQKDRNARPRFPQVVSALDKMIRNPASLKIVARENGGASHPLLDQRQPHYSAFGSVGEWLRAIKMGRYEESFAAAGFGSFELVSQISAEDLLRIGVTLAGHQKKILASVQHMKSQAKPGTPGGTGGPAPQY
Nature of the test: Inhibition of human EPHB4 assessed as enzyme activity at 1 uM using poly[Glu:Tyr] (4:1) as substrate preincubated for 20 mins followed by [gamma-33P]-ATP addition and measured after 120 mins by radiometric Hot-SpotSM Kinase assay relative to control. On the set-up: scale not given: the % may be the effect or the level left.

Test [6] deals with T2, Ephrin type-A receptor 6 (Homo sapiens) (UniProt Q9UF33).
T2 sequence (whole entry): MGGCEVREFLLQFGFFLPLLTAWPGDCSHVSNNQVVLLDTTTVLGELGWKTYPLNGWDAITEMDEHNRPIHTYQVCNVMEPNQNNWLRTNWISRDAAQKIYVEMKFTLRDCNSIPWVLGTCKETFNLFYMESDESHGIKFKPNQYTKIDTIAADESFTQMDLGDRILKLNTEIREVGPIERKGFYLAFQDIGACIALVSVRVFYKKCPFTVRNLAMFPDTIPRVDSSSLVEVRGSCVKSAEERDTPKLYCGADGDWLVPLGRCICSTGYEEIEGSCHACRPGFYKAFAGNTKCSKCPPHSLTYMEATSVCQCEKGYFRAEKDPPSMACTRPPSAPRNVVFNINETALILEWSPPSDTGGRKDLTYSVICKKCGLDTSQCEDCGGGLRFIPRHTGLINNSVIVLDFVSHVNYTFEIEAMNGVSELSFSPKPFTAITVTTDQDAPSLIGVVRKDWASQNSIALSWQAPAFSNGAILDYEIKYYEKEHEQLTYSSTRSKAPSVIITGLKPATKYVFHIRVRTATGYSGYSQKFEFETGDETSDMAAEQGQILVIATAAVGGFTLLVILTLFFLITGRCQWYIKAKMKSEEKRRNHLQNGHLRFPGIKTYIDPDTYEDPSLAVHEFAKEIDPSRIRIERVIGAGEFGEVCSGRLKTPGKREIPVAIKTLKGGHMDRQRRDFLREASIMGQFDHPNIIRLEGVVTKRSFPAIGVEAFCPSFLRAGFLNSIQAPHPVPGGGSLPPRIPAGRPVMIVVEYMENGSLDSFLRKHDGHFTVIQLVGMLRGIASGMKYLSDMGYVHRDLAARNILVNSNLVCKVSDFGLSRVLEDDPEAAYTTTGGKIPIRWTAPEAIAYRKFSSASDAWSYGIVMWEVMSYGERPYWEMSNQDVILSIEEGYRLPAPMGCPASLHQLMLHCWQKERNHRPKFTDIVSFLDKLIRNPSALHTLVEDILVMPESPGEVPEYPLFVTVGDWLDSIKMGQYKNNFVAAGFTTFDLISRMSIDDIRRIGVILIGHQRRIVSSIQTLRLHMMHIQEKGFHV
Nature of the test: Inhibition of human EPHA6 assessed as enzyme activity at 1 uM using poly[Glu:Tyr] (4:1) as substrate preincubated for 20 mins followed by [gamma-33P]-ATP addition and measured after 120 mins by radiometric Hot-SpotSM Kinase assay relative to control. Also noted: scale not given: the % may be the effect or the level left.

A further test concerns the target mTORC1 (Homo sapiens) (UniProt P42345+Q8N122+Q9BVC4). The test can be described thus: Inhibition of mTORC1 in human LY10 cells assessed as reduction in 4E-BP1 phosphorylation at 3 uM measured after 24 hrs by Western blot analysis. It is filed as cell-based.
In another test the test system is CLL cell. Nature of the test: Induction of apoptosis in human CLL cells assessed as increase in cleaved-PARP expression at 5 uM measured after 24 hrs in presence of carfilzomib by Western blot analysis. It is filed as functional, cell-based.
The test system of another test is LY7. The test can be described thus: Induction of apoptosis in human LY7 cells assessed as increase in cleaved-PARP expression at 3 uM measured after 24 hrs in presence of carfilzomib by Western blot analysis. In kind it is functional, cell-based.

Chain of Fibroblast growth factor receptor 2 (Homo sapiens) (P21802 22-821 limits assumed): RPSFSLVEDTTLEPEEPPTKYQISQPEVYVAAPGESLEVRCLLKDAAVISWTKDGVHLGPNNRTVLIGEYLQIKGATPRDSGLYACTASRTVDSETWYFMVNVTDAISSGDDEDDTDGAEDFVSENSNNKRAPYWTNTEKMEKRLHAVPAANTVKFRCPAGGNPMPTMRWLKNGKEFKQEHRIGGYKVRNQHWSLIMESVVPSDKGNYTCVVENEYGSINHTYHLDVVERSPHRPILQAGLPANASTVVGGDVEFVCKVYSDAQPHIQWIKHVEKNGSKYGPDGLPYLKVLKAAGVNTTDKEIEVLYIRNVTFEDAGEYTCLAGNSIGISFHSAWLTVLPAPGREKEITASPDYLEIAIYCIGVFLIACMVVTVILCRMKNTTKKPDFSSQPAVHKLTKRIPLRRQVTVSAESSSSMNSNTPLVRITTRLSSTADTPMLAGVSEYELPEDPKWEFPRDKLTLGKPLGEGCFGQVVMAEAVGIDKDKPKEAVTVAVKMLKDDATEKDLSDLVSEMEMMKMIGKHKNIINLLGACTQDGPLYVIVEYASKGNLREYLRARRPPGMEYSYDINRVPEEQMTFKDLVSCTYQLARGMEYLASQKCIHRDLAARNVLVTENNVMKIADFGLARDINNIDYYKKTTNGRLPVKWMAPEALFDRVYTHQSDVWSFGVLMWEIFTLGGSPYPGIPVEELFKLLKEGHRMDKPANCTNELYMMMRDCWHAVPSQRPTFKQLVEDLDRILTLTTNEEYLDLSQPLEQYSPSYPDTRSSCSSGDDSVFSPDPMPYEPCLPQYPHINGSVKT
Chain of Tyrosine-protein kinase CSK (Homo sapiens) (P41240 2-450 limits assumed): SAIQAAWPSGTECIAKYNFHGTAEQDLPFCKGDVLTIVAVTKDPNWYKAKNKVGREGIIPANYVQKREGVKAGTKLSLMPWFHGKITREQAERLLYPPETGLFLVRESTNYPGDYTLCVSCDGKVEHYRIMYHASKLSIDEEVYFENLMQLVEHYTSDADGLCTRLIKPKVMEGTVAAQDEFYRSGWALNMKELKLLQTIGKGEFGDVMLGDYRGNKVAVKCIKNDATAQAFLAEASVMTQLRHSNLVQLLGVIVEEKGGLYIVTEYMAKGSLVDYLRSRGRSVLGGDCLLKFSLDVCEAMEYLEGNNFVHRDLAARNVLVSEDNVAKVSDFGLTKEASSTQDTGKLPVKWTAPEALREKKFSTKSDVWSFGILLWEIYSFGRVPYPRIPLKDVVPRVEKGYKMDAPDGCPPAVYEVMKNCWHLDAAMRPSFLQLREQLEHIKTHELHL
Chain of Calcium/calmodulin-dependent protein kinase type 1G (Homo sapiens) (Q96NX5 whole entry): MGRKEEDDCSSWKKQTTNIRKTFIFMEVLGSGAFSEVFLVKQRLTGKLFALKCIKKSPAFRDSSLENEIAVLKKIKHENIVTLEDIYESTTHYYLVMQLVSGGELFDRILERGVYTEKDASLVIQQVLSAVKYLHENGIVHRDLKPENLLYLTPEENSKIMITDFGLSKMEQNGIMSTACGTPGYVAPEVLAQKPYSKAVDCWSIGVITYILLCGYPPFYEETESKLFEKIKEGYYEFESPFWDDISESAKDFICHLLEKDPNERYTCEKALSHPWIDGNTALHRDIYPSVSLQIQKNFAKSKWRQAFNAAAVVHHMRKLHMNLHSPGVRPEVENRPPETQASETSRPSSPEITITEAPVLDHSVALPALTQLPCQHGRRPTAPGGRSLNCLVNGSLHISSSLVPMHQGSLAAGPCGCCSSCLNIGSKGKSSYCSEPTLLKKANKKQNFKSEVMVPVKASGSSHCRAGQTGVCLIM
Chain of Serine/threonine-protein kinase SIK2 (Homo sapiens) (Q9H0K1 whole entry, looked up): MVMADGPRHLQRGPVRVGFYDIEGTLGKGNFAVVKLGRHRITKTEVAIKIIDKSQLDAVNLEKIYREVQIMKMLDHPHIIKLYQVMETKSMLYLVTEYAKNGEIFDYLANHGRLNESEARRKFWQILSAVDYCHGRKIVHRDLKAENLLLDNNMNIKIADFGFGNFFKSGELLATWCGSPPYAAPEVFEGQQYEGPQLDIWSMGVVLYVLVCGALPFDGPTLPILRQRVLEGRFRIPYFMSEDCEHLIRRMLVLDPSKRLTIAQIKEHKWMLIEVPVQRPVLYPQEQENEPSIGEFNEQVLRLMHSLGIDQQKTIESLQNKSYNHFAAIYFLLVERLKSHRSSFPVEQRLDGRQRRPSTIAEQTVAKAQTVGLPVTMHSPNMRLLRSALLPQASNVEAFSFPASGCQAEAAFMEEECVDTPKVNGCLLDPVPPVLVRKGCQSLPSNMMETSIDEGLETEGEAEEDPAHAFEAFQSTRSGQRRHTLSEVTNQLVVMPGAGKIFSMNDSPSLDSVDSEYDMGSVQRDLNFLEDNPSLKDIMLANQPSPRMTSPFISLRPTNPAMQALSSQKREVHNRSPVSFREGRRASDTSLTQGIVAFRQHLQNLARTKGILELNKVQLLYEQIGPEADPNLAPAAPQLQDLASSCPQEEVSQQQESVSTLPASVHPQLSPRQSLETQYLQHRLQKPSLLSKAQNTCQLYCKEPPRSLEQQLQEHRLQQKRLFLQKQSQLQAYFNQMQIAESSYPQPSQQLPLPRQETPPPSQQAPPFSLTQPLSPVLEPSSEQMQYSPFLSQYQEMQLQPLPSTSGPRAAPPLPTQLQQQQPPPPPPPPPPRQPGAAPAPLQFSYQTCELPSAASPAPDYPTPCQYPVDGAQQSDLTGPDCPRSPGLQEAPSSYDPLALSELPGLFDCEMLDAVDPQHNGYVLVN
Chain of mTORC1 (Homo sapiens) (Q8N122 whole entry, looked up, other chains not shown): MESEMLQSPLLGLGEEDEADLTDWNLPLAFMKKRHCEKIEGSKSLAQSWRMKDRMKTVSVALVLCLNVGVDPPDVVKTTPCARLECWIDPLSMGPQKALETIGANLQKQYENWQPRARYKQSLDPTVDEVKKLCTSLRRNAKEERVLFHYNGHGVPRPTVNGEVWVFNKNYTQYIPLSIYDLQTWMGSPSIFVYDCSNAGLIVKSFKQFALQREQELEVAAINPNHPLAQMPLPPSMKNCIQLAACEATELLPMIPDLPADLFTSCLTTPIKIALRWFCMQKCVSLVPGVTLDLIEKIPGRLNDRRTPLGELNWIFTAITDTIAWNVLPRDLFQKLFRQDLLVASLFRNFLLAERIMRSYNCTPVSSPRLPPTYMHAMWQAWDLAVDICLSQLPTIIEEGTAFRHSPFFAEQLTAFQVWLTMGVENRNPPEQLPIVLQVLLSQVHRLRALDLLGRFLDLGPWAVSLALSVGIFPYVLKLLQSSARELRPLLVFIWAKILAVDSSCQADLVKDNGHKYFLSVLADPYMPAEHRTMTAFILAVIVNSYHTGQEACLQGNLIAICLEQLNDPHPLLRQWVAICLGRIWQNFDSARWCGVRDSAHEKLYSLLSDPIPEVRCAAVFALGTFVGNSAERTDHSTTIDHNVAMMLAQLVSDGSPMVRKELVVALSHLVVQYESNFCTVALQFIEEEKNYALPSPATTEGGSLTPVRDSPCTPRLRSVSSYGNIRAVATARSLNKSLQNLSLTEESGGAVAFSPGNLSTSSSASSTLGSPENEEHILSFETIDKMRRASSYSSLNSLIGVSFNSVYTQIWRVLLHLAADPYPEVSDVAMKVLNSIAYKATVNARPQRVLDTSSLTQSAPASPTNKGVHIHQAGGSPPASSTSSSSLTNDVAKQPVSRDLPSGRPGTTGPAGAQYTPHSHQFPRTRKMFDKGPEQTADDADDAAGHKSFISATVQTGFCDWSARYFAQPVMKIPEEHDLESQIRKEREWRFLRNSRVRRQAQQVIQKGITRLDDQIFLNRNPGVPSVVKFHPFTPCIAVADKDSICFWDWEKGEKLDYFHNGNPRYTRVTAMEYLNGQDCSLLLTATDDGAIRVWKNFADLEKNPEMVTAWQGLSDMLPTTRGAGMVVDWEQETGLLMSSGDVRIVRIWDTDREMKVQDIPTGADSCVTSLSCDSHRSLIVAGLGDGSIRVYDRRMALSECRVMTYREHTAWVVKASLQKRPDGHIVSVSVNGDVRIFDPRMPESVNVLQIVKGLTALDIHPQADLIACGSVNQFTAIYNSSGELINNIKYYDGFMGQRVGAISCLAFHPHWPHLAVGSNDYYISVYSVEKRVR
Chain of mTORC1 (Homo sapiens) (Q9BVC4 whole entry, looked up, other chains not shown): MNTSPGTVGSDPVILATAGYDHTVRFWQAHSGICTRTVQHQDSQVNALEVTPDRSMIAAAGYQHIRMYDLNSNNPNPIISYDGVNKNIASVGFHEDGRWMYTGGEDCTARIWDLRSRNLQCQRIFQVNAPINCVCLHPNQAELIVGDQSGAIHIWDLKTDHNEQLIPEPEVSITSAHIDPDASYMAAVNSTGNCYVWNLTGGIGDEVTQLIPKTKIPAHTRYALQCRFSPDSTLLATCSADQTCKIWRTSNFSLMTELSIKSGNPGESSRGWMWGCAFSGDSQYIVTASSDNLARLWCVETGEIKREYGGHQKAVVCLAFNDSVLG

Take `C[C@H](Nc1ncnc2nc[nH]c12)c1cc2cccc(Cl)c2c(=O)n1-c1ccccc1`: the Activity in [1] was found to be 99.1%; in test [2] it was 94%; in [3], 93.9%; in [4] it was 97.9%; in test [5], 91.5%; in [6], 86.9%.

On to `CC[C@H](Nc1ncnc2[nH]cnc12)c1nc2cccc(F)c2c(=O)n1-c1ccccc1`, for which, on mTORC1 (Homo sapiens), the inhibition entry was “inactive”. For the same compound, the outcome in the test on CLL cell and in the test with LY7 was Active. Besides, the Activity in test [1] is 102%; in test [2], 98.5%; in test [3], 95.8%; in test [4] it was 99.1%; in [5], 92.2%; in [6] it was 87.7%.

Consider `CC(C)Oc1ccc(-c2nn([C@@H](C)c3oc4ccc(F)cc4c(=O)c3-c3cccc(F)c3)c3ncnc(N)c23)cc1F` [UMBRALISIB], for which, on mTORC1 (Homo sapiens), the inhibition entry is “inactive”. The outcome in the test with CLL cell and in the test with LY7 was Active. Further, the Activity was found to be 98.9% in test [1]; 95.4% in test [2]; 97.8% in [3]; 94.1% in [4]; 89.7% in test [5]; 81.3% in test [6].
